The target in one test is human orexin-1 receptor (Homo sapiens (Human), UniProt O43613). Nature of the test: In vitro assay: intracellular calcium measurements (FLIPR), antagonistic activity. In kind it is cell-based. To be noted: CHO cells expressing human orexin-1 receptor, orexin-A agonist, geometric mean, read-out: IC50 Ox1. The method, then:
(§1) In Vitro Assay: Intracellular Calcium Measurements:
(§2) Chinese hamster ovary (CHO) cells expressing the human orexin-1 receptor and the human orexin-2 receptor, respectively, are grown in culture medium (Ham F-12 with L-Glutamine) containing 300 μg/ml G418, 100 U/ml penicillin, 100 μg/ml streptomycin and 10% heat inactivated fetal calf serum (FCS). The cells are seeded at 20,000 cells/well into 384-well black clear bottom sterile plates (Greiner). The seeded plates are incubated overnight at 37° C. in 5% CO2.
(§3) Human orexin-A as an agonist is prepared as 1 mM stock solution in MeOH: water (1:1), diluted in HBSS containing 0.1% bovine serum albumin (BSA), NaHCO3: 0.375 g/l and 20 mM HEPES for use in the assay at a final concentration of 3 nM.
(§4) Antagonists are prepared as 10 mM stock solution in DMSO, then diluted in 384-well plates using DMSO followed by a transfer of the dilutions into in HBSS containing 0.1% bovine serum albumin (BSA), NaHCO3: 0.375 g/l and 20 mM HEPES. On the day of the assay, 50 μl of staining buffer (HBSS containing 1% FCS, 20 mM HEPES, NaHCO3: 0.375 g/l, 5 mM probenecid (Sigma) and […] of the fluorescent calcium indicator fluo-4 AM (1 mM stock solution in DMSO, containing 10% pluronic) is added to each well. The 384-well cell-plates are incubated for 50 min at 37° C. in 5% CO2 followed by equilibration at RT for 30 min before measurement.
(§5) Within the Fluorescent Imaging Plate Reader (FLIPR Tetra, Molecular Devices), antagonists are added to the plate in a volume of 10 μl/well, incubated for 120 min and finally 10 μl/well of agonist is added. Fluorescence is measured for each well at 1 second intervals, and the height of each fluorescence peak is compared to the height of the fluorescence peak induced by an approximate EC70 (for example 5 nM) of orexin-A with vehicle in place of antagonist. The IC50 value (the concentration of compound needed to inhibit 50% of the agonistic response) is determined and may be normalized using the obtained IC50 value of a on-plate reference compound. Optimized conditions are achieved by adjustment of pipetting speed and cell splitting regime. The calculated IC50 values may fluctuate depending on the daily cellular assay performance. Fluctuations of this kind are known to those skilled in the art. Average IC50 values from several measurements are given as geometric mean values.
For orientation: Calcium flux is commonly read through the fluorescence of an indicator in the cells.

For another test, the target named is human orexin-2 receptor (Homo sapiens (Human), UniProt O43614). The test is described as above. To be noted: CHO cells expressing human orexin-2 receptor, orexin-A agonist, geometric mean, read-out: IC50 Ox2. Type of test: cell-based. The method, then: as §1, §2, §3, §4, §5
human orexin-2 receptor, sequence (O43614 whole entry): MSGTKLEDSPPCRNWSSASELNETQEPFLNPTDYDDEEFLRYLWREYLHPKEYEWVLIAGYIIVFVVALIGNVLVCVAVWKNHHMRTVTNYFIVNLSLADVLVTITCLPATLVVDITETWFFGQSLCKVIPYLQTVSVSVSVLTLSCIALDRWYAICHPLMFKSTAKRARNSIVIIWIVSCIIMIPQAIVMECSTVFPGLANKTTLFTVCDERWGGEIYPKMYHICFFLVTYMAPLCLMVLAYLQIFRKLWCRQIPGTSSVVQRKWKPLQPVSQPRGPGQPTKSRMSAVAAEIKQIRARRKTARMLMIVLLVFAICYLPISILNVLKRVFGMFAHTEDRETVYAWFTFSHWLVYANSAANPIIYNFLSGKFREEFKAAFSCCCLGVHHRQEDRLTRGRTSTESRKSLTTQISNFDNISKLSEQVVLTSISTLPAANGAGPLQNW

The source of these data is patent publication US9732075B2, “Benzimidazole-proline derivatives” (IDORSIA PHARMACEUTICALS LTD, priority 2012, dated 2017).

The term IC50 denotes the concentration needed to halve the response being measured.

human orexin-1 receptor, sequence (O43613 whole entry): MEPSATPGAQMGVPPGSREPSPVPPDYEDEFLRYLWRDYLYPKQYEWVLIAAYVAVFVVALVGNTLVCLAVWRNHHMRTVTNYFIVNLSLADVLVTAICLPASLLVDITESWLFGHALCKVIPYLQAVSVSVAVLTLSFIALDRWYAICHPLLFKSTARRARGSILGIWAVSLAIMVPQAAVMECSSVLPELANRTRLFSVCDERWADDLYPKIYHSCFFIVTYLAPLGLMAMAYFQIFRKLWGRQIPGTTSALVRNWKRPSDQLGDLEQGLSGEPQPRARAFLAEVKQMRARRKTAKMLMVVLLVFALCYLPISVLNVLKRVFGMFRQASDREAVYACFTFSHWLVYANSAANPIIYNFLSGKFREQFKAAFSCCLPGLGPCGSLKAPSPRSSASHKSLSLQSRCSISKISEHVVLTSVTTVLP

Regarding `Cc1cc(C)c2nc(C3CCCN3C(=O)c3nc(C)sc3-c3cccc(Cl)c3)[nH]c2c1` (racemic) [Ex. 1.102], the half-inhibitory concentration (IC50) on human orexin-1 receptor and on human orexin-2 receptor was 17 nM throughout. Take `Cc1nc(C(=O)N2CCCC2c2nc3c4c(ccc3[nH]2)OCCO4)c(-c2cccc(Cl)c2)s1` (racemic) [Ex. 1.117]: the IC50 on human orexin-1 receptor is 136 nM; on human orexin-2 receptor, 56 nM.

As for `C=C1CC(c2nc3cc(OC)ccc3[nH]2)N(C(=O)c2cc(C)sc2-c2ccc(C)c(C)c2)C1` (racemic) [Ex. 6.71], the results for the 50% inhibitory concentration (IC50) on human orexin-1 receptor and at human orexin-2 receptor were 24 nM and 2 nM, respectively. Take `C=C1CC(c2nc3cccc(SC)c3[nH]2)N(C(=O)c2cc(C)sc2-c2ccc(C)c(C)c2)C1` (racemic) [Ex. 6.72]: the figures for the half-inhibitory concentration (IC50) at human orexin-1 receptor and on human orexin-2 receptor were 4 nM and 6 nM, respectively. For the compound `C=C1CC(c2nc3cc(C)c(C)cc3[nH]2)N(C(=O)c2cc(C)sc2-c2ccc(C)c(C)c2)C1` (racemic) [Ex. 6.75], the values for the half-inhibitory concentration (IC50) on human orexin-1 receptor and on human orexin-2 receptor were 8 nM and 4 nM, respectively.

Consider `C=C1CC(c2nc3cc(Cl)c(C)cc3[nH]2)N(C(=O)c2cc(C)sc2-c2ccc(C)c(C)c2)C1` (racemic) [Ex. 6.80], for which the values for the IC50 on human orexin-1 receptor and on human orexin-2 receptor were 13 nM and 19 nM, respectively. As for `C=C1CC(c2nc3c(OC)ccc(OC)c3[nH]2)N(C(=O)c2cc(C)sc2-c2ccc(C)c(C)c2)C1` (racemic) [Ex. 6.83], the values for the half-maximal inhibitory concentration (IC50) on human orexin-1 receptor and on human orexin-2 receptor were 8 nM and 23 nM, respectively. As to `C=C1CC(c2nc3cc(OC)ccc3[nH]2)N(C(=O)c2nc(C3CC3)sc2-c2cccc(C)c2)C1` (racemic) [Ex. 6.86], the IC50 on human orexin-1 receptor amounted to 22 nM; at human orexin-2 receptor it was 20 nM.

For the compound `C=C1CC(c2nc3cccc(SC)c3[nH]2)N(C(=O)c2nc(C3CC3)sc2-c2cccc(C)c2)C1` (racemic) [Ex. 6.87], the concentration for half-maximal inhibition (IC50) was determined as 1 nM on human orexin-1 receptor and 2 nM at human orexin-2 receptor. For the compound `C=C1CC(c2nc3c(C)c(C)ccc3[nH]2)N(C(=O)c2nc(C3CC3)sc2-c2cccc(C)c2)C1` (racemic) [Ex. 6.92], the IC50 at human orexin-1 receptor is 4 nM; on human orexin-2 receptor, 2 nM. As to `C=C1CC(c2nc3cc(Cl)c(C)cc3[nH]2)N(C(=O)c2nc(C3CC3)sc2-c2cccc(C)c2)C1` (racemic) [Ex. 6.95], the IC50 on human orexin-1 receptor is 9 nM; at human orexin-2 receptor it was 2 nM.

For `C=C1CC(c2nc3cc(Cl)c(C(F)(F)F)cc3[nH]2)N(C(=O)c2nc(C3CC3)sc2-c2cccc(C)c2)C1` (racemic) [Ex. 6.97], the IC50 at human orexin-1 receptor was 14 nM; at human orexin-2 receptor, 10 nM. For the compound `C=C1CC(c2nc3cccc(Cl)c3[nH]2)N(C(=O)c2nc(C3CC3)sc2-c2cccc(C)c2)C1` (racemic) [Ex. 6.99], the figures for the concentration for half-maximal inhibition (IC50) on human orexin-1 receptor and at human orexin-2 receptor were 5 nM and 1 nM, respectively.

Regarding `C=C1CN(C(=O)c2nc(C)sc2-c2ccc(C)c(C)c2)C(C)(c2nc3cc(OC)ccc3[nH]2)C1` (racemic) [Ex. 6.145], the IC50 at human orexin-1 receptor worked out at 21 nM; at human orexin-2 receptor it was 75 nM. In the same order, the values of `C=C1CN(C(=O)c2nc(C)sc2-c2ccc(Cl)cc2)C(C)(c2nc3cc(OC)ccc3[nH]2)C1` (racemic) [Ex. 6.146] are 16 nM and 33 nM.

Consider `C=C1CN(C(=O)c2ccccc2-c2ccc(F)c(C)c2)C(C)(c2nc3cc(OC)ccc3[nH]2)C1` (racemic) [Ex. 6.151], for which the IC50 worked out at 46 nM at human orexin-1 receptor and 44 nM on human orexin-2 receptor. With `C=C1CN(C(=O)c2nc(C)sc2-c2ccccc2)C(C)(c2nc3cc(OC)ccc3[nH]2)C1` (racemic) [Ex. 6.154], the figures for the IC50 on human orexin-1 receptor and on human orexin-2 receptor were 32 nM and 38 nM, respectively. For `COc1ccc2[nH]c([C@@H]3CCCN3C(=O)c3cc(C)ccc3-n3nccn3)nc2c1` [Ex. 1.2], the IC50 on human orexin-1 receptor is 349 nM; on human orexin-2 receptor, 7 nM.

Turning to `Cc1ccc(-n2nccn2)c(C(=O)N2CCC[C@H]2c2nc3cc(Cl)ccc3[nH]2)c1` [Ex. 1.3], the IC50 is 265 nM on human orexin-1 receptor and 51 nM at human orexin-2 receptor. The matching figures for `COc1cccc2nc([C@@H]3CCCN3C(=O)c3cc(C)ccc3-n3nccn3)[nH]c12` [Ex. 1.4]: 241 nM and 30 nM. In the case of `CSc1cccc2nc([C@@H]3CCCN3C(=O)c3cc(C)ccc3-n3nccn3)[nH]c12` [Ex. 1.5], the IC50 came to 56 nM at human orexin-1 receptor and 23 nM at human orexin-2 receptor. `Cc1ccc(-n2nccn2)c(C(=O)N2CCC[C@H]2c2nc3cccc(Cl)c3[nH]2)c1` [Ex. 1.6]: the values for the IC50 at human orexin-1 receptor and on human orexin-2 receptor were 202 nM and 46 nM, respectively.

Consider `CSc1ccc2[nH]c([C@@H]3CCCN3C(=O)c3cc(C)ccc3-n3nccn3)nc2c1` [Ex. 1.7], for which the IC50 came to 93 nM at human orexin-1 receptor and 5 nM at human orexin-2 receptor. As for `COc1ccc2[nH]c([C@@H]3CCCN3C(=O)c3nc(C)sc3-c3cccc(Cl)c3)nc2c1` [Ex. 1.9], the IC50 on human orexin-1 receptor was 337 nM; at human orexin-2 receptor, 69 nM. For `Cc1nc(C(=O)N2CCC[C@H]2c2nc3cc(Cl)ccc3[nH]2)c(-c2cccc(Cl)c2)s1` [Ex. 1.10], the figures for the half-maximal inhibitory concentration (IC50) at human orexin-1 receptor and on human orexin-2 receptor were 98 nM and 248 nM, respectively. As to `COc1cccc2nc([C@@H]3CCCN3C(=O)c3nc(C)sc3-c3cccc(Cl)c3)[nH]c12` [Ex. 1.11], the IC50 on human orexin-1 receptor came out at 110 nM; on human orexin-2 receptor, 54 nM. `Cc1nc(C(=O)N2CCC[C@H]2c2nc3c(O)cccc3[nH]2)c(-c2cccc(Cl)c2)s1` [Ex. 1.12]: the IC50 was 273 nM at human orexin-1 receptor and 344 nM on human orexin-2 receptor. As for `CSc1cccc2nc([C@@H]3CCCN3C(=O)c3nc(C)sc3-c3cccc(Cl)c3)[nH]c12` [Ex. 1.13], the results for the IC50 on human orexin-1 receptor and at human orexin-2 receptor were 15 nM and 24 nM, respectively. In the same order, the values of `Cc1nc(C(=O)N2CCC[C@H]2c2nc3cccc(Cl)c3[nH]2)c(-c2cccc(Cl)c2)s1` [Ex. 1.14] are 34 nM and 32 nM.

As to `CSc1ccc2[nH]c([C@@H]3CCCN3C(=O)c3nc(C)sc3-c3cccc(Cl)c3)nc2c1` [Ex. 1.15], the IC50 amounted to 67 nM at human orexin-1 receptor and 45 nM at human orexin-2 receptor. On to `COc1ccc2nc([C@@H]3CCCN3C(=O)c3cc(C)ccc3-n3nccn3)[nH]c2c1` [Ex. 1.16], for which the values for the IC50 on human orexin-1 receptor and at human orexin-2 receptor were 245 nM and 5 nM, respectively.

As to `CSc1ccc2nc([C@@H]3CCCN3C(=O)c3cc(C)ccc3-n3nccn3)[nH]c2c1` [Ex. 1.17], the IC50 came to 97 nM on human orexin-1 receptor and 8 nM at human orexin-2 receptor.

As for `COc1ccc2nc([C@@H]3CCCN3C(=O)c3nc(C)sc3-c3ccc(Br)cc3)[nH]c2c1` [Ex. 1.18], the figures for the IC50 at human orexin-1 receptor and on human orexin-2 receptor were 935 nM and 153 nM, respectively. Consider `COc1ccc2nc([C@@H]3CCCN3C(=O)c3nc(C)sc3-c3cccc(Cl)c3Cl)[nH]c2c1` [Ex. 1.19], for which the IC50 was found to be 660 nM at human orexin-1 receptor and 76 nM on human orexin-2 receptor. For the compound `COc1cccc(-c2sc(C)nc2C(=O)N2CCC[C@H]2c2nc3ccc(OC)cc3[nH]2)c1` [Ex. 1.20], the IC50 was found to be 692 nM on human orexin-1 receptor and 121 nM at human orexin-2 receptor. For `Cc1nc(C(=O)N2CCCC2c2nc3cc(F)c(Cl)cc3[nH]2)c(-c2cccc(Cl)c2)s1` (centres unmarked) [Ex. 1.98], the IC50 at human orexin-1 receptor amounted to 105 nM. Consider `CO[C@H]1CN(C(=O)c2cc(C)c(C)cc2-n2nccn2)C(C)(c2nc3c(C)c(Cl)ccc3[nH]2)C1` (some centres unmarked) [Ex. 3.48], for which, on human orexin-2 receptor, the IC50 amounted to 4 nM. Turning to `Cc1ccc(-n2nccn2)c(C(=O)N2CC[C@H](C)[C@H]2c2nc3c(C)c(Cl)ccc3[nH]2)c1F` [Ex. 4.68], at human orexin-1 receptor, the IC50 was found to be 2 nM.

`Cc1nc(C(=O)N2CC[C@H](C)[C@H]2c2nc3cc(C(F)(F)F)ccc3[nH]2)c(-c2ccc(C)c(C)c2)s1` [Ex. 4.145]: the IC50 on human orexin-2 receptor was 635 nM.

Regarding `Cc1ccc(-c2sc(C)nc2C(=O)N2CC[C@H](C)[C@H]2c2nc3c(C(F)(F)F)cccc3[nH]2)cc1` [Ex. 4.153], the half-maximal inhibitory concentration (IC50) at human orexin-2 receptor was found to be 80 nM. On to `C[C@@]1(c2nc3cc(F)c(Br)cc3[nH]2)CCCN1C(=O)c1cc(F)ccc1-n1nccn1` [Ex. 5.126], for which the IC50 on human orexin-1 receptor came to 117 nM. With `Cc1cc(C(=O)N2CCC[C@@]2(C)c2nc3cc(C(F)(F)F)c(Cl)cc3[nH]2)c(-n2nccn2)cc1C` [Ex. 5.137], the IC50 on human orexin-2 receptor was 6 nM. Same read-out and setting: then `Cc1nc(C(=O)N2CCC[C@@]2(C)c2nc3c(C)c(C)c(Br)cc3[nH]2)c(-c2cc(F)cc(F)c2)s1` [Ex. 5.274], with 8 nM. In the case of `Cc1ccc(-c2ncccn2)c(C(=O)N2CCC[C@@]2(C)c2nc3cc(C(F)(F)F)c(Cl)cc3[nH]2)c1` [Ex. 5.279], the IC50 at human orexin-2 receptor stood at 8 nM. `Cc1ccc(-c2ncccn2)c(C(=O)N2CCC[C@@]2(C)c2nc3ccc(F)c(F)c3[nH]2)c1` [Ex. 5.283]: the IC50 on human orexin-1 receptor came out at 87 nM.
